Data on 1 compound can be found in ChEMBL document CHEMBL4385653, “Design, synthesis, biological evaluation of benzoyl amide derivatives containing nitrogen heterocyclic ring as potential VEGFR-2 inhibitors” (Bioorg Med Chem, 2019).

What all share (type): functional
The test system of test [1] is MCF7. Kind of test: Induction of apoptosis in human MCF7 cells assessed as early apoptotic cells level at 4 uM incubated for 12 hrs by Annexin V-FITC/PI double staining based flow cytometry analysis (reference value: 1.06%). In general terms: Flow cytometry measures light scatter and fluorescence of single cells or particles in a stream.
Test [2] relates to MCF7. Kind of test: Induction of apoptosis in human MCF7 cells assessed as late necrotic cells level at 4 uM incubated for 12 hrs by Annexin V-FITC/PI double staining based flow cytometry analysis (reference value: 6.88%).
Test [3] relates to MCF7. Kind of test: Induction of apoptosis in human MCF7 cells assessed as viable cells level at 4 uM incubated for 12 hrs by Annexin V-FITC/PI double staining based flow cytometry analysis (reference value: 89%).
The test system of test [4] is MCF7. Kind of test: Induction of apoptosis in human MCF7 cells assessed as viable cells level at 4 uM incubated for 24 hrs by Annexin V-FITC/PI double staining based flow cytometry analysis (reference value: 89%).
Test [5] relates to MCF7. Kind of test: Induction of apoptosis in human MCF7 cells assessed as viable cells level at 4 uM incubated for 36 hrs by Annexin V-FITC/PI double staining based flow cytometry analysis (reference value: 89%).
For test [6], the system named is MCF7. Kind of test: Induction of apoptosis in human MCF7 cells assessed as early apoptotic cells level at 4 uM incubated for 24 hrs by Annexin V-FITC/PI double staining based flow cytometry analysis (reference value: 6.37%).
Test [7] relates to MCF7. Kind of test: Induction of apoptosis in human MCF7 cells assessed as late necrotic cells level at 8 uM incubated for 24 hrs by Annexin V-FITC/PI double staining based flow cytometry analysis (reference value: 1.49%).
Test [8] relates to MCF7. Kind of test: Induction of apoptosis in human MCF7 cells assessed as late apoptotic cells level at 4 uM incubated for 24 hrs by Annexin V-FITC/PI double staining based flow cytometry analysis (reference value: 3.1%).
The subject of test [9] is MCF7. Kind of test: Induction of apoptosis in human MCF7 cells assessed as late necrotic cells level at 4 uM incubated for 24 hrs by Annexin V-FITC/PI double staining based flow cytometry analysis (reference value: 6.88%).
For test [10], the system named is MCF7. Kind of test: Induction of apoptosis in human MCF7 cells assessed as late apoptotic cells level at 4 uM incubated for 36 hrs by Annexin V-FITC/PI double staining based flow cytometry analysis (reference value: 3.1%).
The subject of test [11] is MCF7. Kind of test: Induction of apoptosis in human MCF7 cells assessed as viable cells level at 8 uM incubated for 24 hrs by Annexin V-FITC/PI double staining based flow cytometry analysis (reference value: 82%).
Test [12] deals with MCF7. Kind of test: Induction of apoptosis in human MCF7 cells assessed as viable cells level at 4 uM incubated for 24 hrs by Annexin V-FITC/PI double staining based flow cytometry analysis (reference value: 82%).
Test [13] deals with MCF7. Kind of test: Induction of apoptosis in human MCF7 cells assessed as late apoptotic cells level at 8 uM incubated for 24 hrs by Annexin V-FITC/PI double staining based flow cytometry analysis (reference value: 10.1%).
The subject of test [14] is MCF7. Kind of test: Induction of apoptosis in human MCF7 cells assessed as late apoptotic cells level at 2 uM incubated for 24 hrs by Annexin V-FITC/PI double staining based flow cytometry analysis (reference value: 10.1%).
Test [15] relates to MCF7. Kind of test: Induction of apoptosis in human MCF7 cells assessed as early apoptotic cells level at 2 uM incubated for 24 hrs by Annexin V-FITC/PI double staining based flow cytometry analysis (reference value: 6.37%).
Test [16] relates to MCF7. Kind of test: Induction of apoptosis in human MCF7 cells assessed as late apoptotic cells level at 4 uM incubated for 12 hrs by Annexin V-FITC/PI double staining based flow cytometry analysis (reference value: 3.1%).
Test [17] deals with MCF7. Kind of test: Induction of apoptosis in human MCF7 cells assessed as late necrotic cells level at 4 uM incubated for 36 hrs by Annexin V-FITC/PI double staining based flow cytometry analysis (reference value: 6.88%).
Test [18] concerns MCF7. Kind of test: Induction of apoptosis in human MCF7 cells assessed as early apoptotic cells level at 8 uM incubated for 24 hrs by Annexin V-FITC/PI double staining based flow cytometry analysis (reference value: 6.37%).
Test [19] deals with MCF7. Kind of test: Induction of apoptosis in human MCF7 cells assessed as early apoptotic cells level at 4 uM incubated for 24 hrs by Annexin V-FITC/PI double staining based flow cytometry analysis (reference value: 1.06%).
For test [20], the system named is MCF7. Kind of test: Induction of apoptosis in human MCF7 cells assessed as late apoptotic cells level at 4 uM incubated for 24 hrs by Annexin V-FITC/PI double staining based flow cytometry analysis (reference value: 10.1%).
Test [21] deals with MCF7. Kind of test: Induction of apoptosis in human MCF7 cells assessed as late necrotic cells level at 4 uM incubated for 24 hrs by Annexin V-FITC/PI double staining based flow cytometry analysis (reference value: 1.49%).
The test system of test [22] is MCF7. Kind of test: Induction of apoptosis in human MCF7 cells assessed as viable cells level at 2 uM incubated for 24 hrs by Annexin V-FITC/PI double staining based flow cytometry analysis (reference value: 82%).
The subject of test [23] is MCF7. Kind of test: Induction of apoptosis in human MCF7 cells assessed as late necrotic cells level at 2 uM incubated for 24 hrs by Annexin V-FITC/PI double staining based flow cytometry analysis (reference value: 1.49%).
The subject of test [24] is MCF7. Kind of test: Induction of apoptosis in human MCF7 cells assessed as early apoptotic cells level at 4 uM incubated for 36 hrs by Annexin V-FITC/PI double staining based flow cytometry analysis (reference value: 1.06%).

Turning to `CCCS(=O)(=O)Nc1ccc(F)c(C(=O)c2c[nH]c3ncc(-c4ccc(Cl)cc4)cc23)c1F` [VEMURAFENIB], the Activity is listed as 14.2% in [1]; 1.24% in [2]; 70.7% in [3]; 66.4% in [4]; 50.7% in test [5]; 8.13% in [6]. In addition, the Activity in test [7] was determined as 2.02%; in test [8], 16.7%; in test [9], 1.81%; in [10], 13.7%; in test [11], 57.2%; in test [12], 66.7%. Moreover, the Activity in [13] amounted to 26.3%; in [14], 14.9%; in [15] it was 8.28%; in test [16] it was 13.9%; in test [17], 0.853%; in test [18] it was 14.4%. Moreover, the Activity in test [19] stood at 15.1%; in [20] it was 21.7%; in [21], 3.53%; in test [22], 74.6%; in test [23], 2.29%; in [24], 34.7%.
